Laboratory results reported in the supplement of paper PMC10307832.

Key:
Assay in all cases: relative viability (nuclei count vs DMSO), 5 days (fraction); higher = more cells survive
[1] = compound: COc1cc2ncn(-c3cc(OCc4ccccc4C(F)(F)F)c(C(N)=O)s3)c2cc1OC + Cc1nc(Nc2ncc(C(=O)Nc3c(C)cccc3Cl)s2)cc(N2CCN(CCO)CC2)n1 [Dasatinib] (partner 0.075 µM)
In short: (§1)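 Lung cancer cell lines were seeded in 1536-well plates and dosed by pin tool the next day, with either a single drug or a fixed anchor-drug dose combined with five library-drug doses (not always all listed) spaced in √10 steps. Five days later, one step fixed the cells and stained their nuclei (final 0.05% Triton X-100, 1% formaldehyde, 1 ug/ml Hoechst), and nuclei were counted on 4× images. Relative viability is the nuclei count in treated wells divided by the count in vehicle wells, and each value is the median of duplicate plates.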

[2] = compound: COc1cc2ncn(-c3cc(OCc4ccccc4C(F)(F)F)c(C(N)=O)s3)c2cc1OC + Cc1cc(Nc2cc(N3CCN(C)CC3)nc(Sc3ccc(NC(=O)C4CC4)cc3)n2)n[nH]1 [Tozasertib] (partner 0.1 µM)
In short: as §1

[3] = compound: COc1cc2ncn(-c3cc(OCc4ccccc4C(F)(F)F)c(C(N)=O)s3)c2cc1OC + Cc1nc(NC(=O)N2CCC[C@H]2C(N)=O)sc1-c1ccnc(C(C)(C)C(F)(F)F)c1 [Alpelisib] (partner 2 µM)
In short: as §1

[4] = compound: COc1cc2ncn(-c3cc(OCc4ccccc4C(F)(F)F)c(C(N)=O)s3)c2cc1OC + CCNC(=O)c1noc(-c2cc(C(C)C)c(O)cc2O)c1-c1ccc(CN2CCOCC2)cc1 [Luminespib] (partner 0.01 µM)
In short: as §1

HCC-827
relative viability ([1]; first compound 0.05 µM): 0.321 | relative viability ([1]; first compound 0.1581 µM): 0.359 | relative viability ([1]; first compound 0.5 µM): 0.222 | relative viability ([1]; first compound 1.581 µM): 0.293 | relative viability ([1]; first compound 5 µM): 0.292 | relative viability ([2]; first compound 0.05 µM): 0.411 | relative viability ([2]; first compound 0.1581 µM): 0.397 | relative viability ([2]; first compound 0.5 µM): 0.37 | relative viability ([2]; first compound 1.581 µM): 0.344 | relative viability ([2]; first compound 5 µM): 0.313 | relative viability ([3]; first compound 0.05 µM): 0.887 | relative viability ([3]; first compound 0.1581 µM): 1.03 | relative viability ([3]; first compound 0.5 µM): 0.667 | relative viability ([3]; first compound 1.581 µM): 0.286 | relative viability ([3]; first compound 5 µM): 0.226 | relative viability ([4]; first compound 0.05 µM): 0.335 | relative viability ([4]; first compound 0.1581 µM): 0.683 | relative viability ([4]; first compound 0.5 µM): 0.372 | relative viability ([4]; first compound 1.581 µM): 0.194 | relative viability ([4]; first compound 5 µM): 0.161

HOP-62
relative viability ([1]; first compound 0.05 µM): 0.653 | relative viability ([1]; first compound 0.1581 µM): 0.694 | relative viability ([1]; first compound 0.5 µM): 0.597 | relative viability ([1]; first compound 1.581 µM): 0.15 | relative viability ([1]; first compound 5 µM): 0.114 | relative viability ([2]; first compound 0.05 µM): 0.361 | relative viability ([2]; first compound 0.1581 µM): 0.334 | relative viability ([2]; first compound 0.5 µM): 0.241 | relative viability ([2]; first compound 1.581 µM): 0.175 | relative viability ([2]; first compound 5 µM): 0.201 | relative viability ([3]; first compound 0.05 µM): 1.02 | relative viability ([3]; first compound 0.1581 µM): 0.837 | relative viability ([3]; first compound 0.5 µM): 0.752 | relative viability ([3]; first compound 1.581 µM): 0.199 | relative viability ([3]; first compound 5 µM): 0.116 | relative viability ([4]; first compound 0.05 µM): 0.966 | relative viability ([4]; first compound 0.1581 µM): 0.638 | relative viability ([4]; first compound 0.5 µM): 0.708 | relative viability ([4]; first compound 1.581 µM): 0.176 | relative viability ([4]; first compound 5 µM): 0.123

IA-LM
relative viability ([3]; first compound 0.05 µM): 0.701 | relative viability ([3]; first compound 0.1581 µM): 0.493 | relative viability ([3]; first compound 0.5 µM): 0.107 | relative viability ([3]; first compound 1.581 µM): 0.0655 | relative viability ([3]; first compound 5 µM): 0.0465

LC-2-ad
relative viability ([1]; first compound 0.05 µM): 0.639 | relative viability ([1]; first compound 0.1581 µM): 0.594 | relative viability ([1]; first compound 0.5 µM): 0.201 | relative viability ([1]; first compound 1.581 µM): 0.123 | relative viability ([1]; first compound 5 µM): 0.133 | relative viability ([2]; first compound 0.05 µM): 0.439 | relative viability ([2]; first compound 0.1581 µM): 0.512 | relative viability ([2]; first compound 0.5 µM): 0.273 | relative viability ([2]; first compound 1.581 µM): 0.359 | relative viability ([2]; first compound 5 µM): 0.367 | relative viability ([3]; first compound 0.05 µM): 0.791 | relative viability ([3]; first compound 0.1581 µM): 0.784 | relative viability ([3]; first compound 0.5 µM): 0.135 | relative viability ([3]; first compound 1.581 µM): 0.113 | relative viability ([3]; first compound 5 µM): 0.1 | relative viability ([4]; first compound 0.05 µM): 0.759 | relative viability ([4]; first compound 0.1581 µM): 0.857 | relative viability ([4]; first compound 0.5 µM): 0.515 | relative viability ([4]; first compound 1.581 µM): 0.293 | relative viability ([4]; first compound 5 µM): 0.29

LCLC-97TM1
relative viability ([1]; first compound 0.05 µM): 0.743 | relative viability ([1]; first compound 0.1581 µM): 0.74 | relative viability ([1]; first compound 0.5 µM): 0.761 | relative viability ([1]; first compound 1.581 µM): 0.214 | relative viability ([1]; first compound 5 µM): 0.128 | relative viability ([2]; first compound 0.05 µM): 0.254 | relative viability ([2]; first compound 0.1581 µM): 0.246 | relative viability ([2]; first compound 0.5 µM): 0.148 | relative viability ([2]; first compound 1.581 µM): 0.17 | relative viability ([2]; first compound 5 µM): 0.162 | relative viability ([3]; first compound 0.05 µM): 0.244 | relative viability ([3]; first compound 0.1581 µM): 0.238 | relative viability ([3]; first compound 0.5 µM): 0.144 | relative viability ([3]; first compound 1.581 µM): 0.139 | relative viability ([3]; first compound 5 µM): 0.127 | relative viability ([4]; first compound 0.05 µM): 0.757 | relative viability ([4]; first compound 0.1581 µM): 0.719 | relative viability ([4]; first compound 0.5 µM): 0.415 | relative viability ([4]; first compound 1.581 µM): 0.167 | relative viability ([4]; first compound 5 µM): 0.197

LCLC-103H
relative viability ([1]; first compound 0.05 µM): 0.466 | relative viability ([1]; first compound 0.1581 µM): 0.522 | relative viability ([1]; first compound 0.5 µM): 0.341 | relative viability ([1]; first compound 1.581 µM): 0.176 | relative viability ([1]; first compound 5 µM): 0.175 | relative viability ([2]; first compound 0.05 µM): 0.395 | relative viability ([2]; first compound 0.1581 µM): 0.457 | relative viability ([2]; first compound 0.5 µM): 0.33 | relative viability ([2]; first compound 1.581 µM): 0.252 | relative viability ([2]; first compound 5 µM): 0.217 | relative viability ([3]; first compound 0.05 µM): 0.966 | relative viability ([3]; first compound 0.1581 µM): 1.04 | relative viability ([3]; first compound 0.5 µM): 0.997 | relative viability ([3]; first compound 1.581 µM): 0.389 | relative viability ([3]; first compound 5 µM): 0.248 | relative viability ([4]; first compound 0.05 µM): 0.771 | relative viability ([4]; first compound 0.1581 µM): 0.927 | relative viability ([4]; first compound 0.5 µM): 0.594 | relative viability ([4]; first compound 1.581 µM): 0.273 | relative viability ([4]; first compound 5 µM): 0.151

LK-2
relative viability ([1]; first compound 0.05 µM): 0.282 | relative viability ([1]; first compound 0.1581 µM): 0.369 | relative viability ([1]; first compound 0.5 µM): 0.262 | relative viability ([1]; first compound 1.581 µM): 0.154 | relative viability ([1]; first compound 5 µM): 0.151 | relative viability ([2]; first compound 0.05 µM): 0.177 | relative viability ([2]; first compound 0.1581 µM): 0.174 | relative viability ([2]; first compound 0.5 µM): 0.163 | relative viability ([2]; first compound 1.581 µM): 0.162 | relative viability ([2]; first compound 5 µM): 0.195 | relative viability ([3]; first compound 0.05 µM): 1.13 | relative viability ([3]; first compound 0.1581 µM): 0.957 | relative viability ([3]; first compound 0.5 µM): 0.575 | relative viability ([3]; first compound 1.581 µM): 0.298 | relative viability ([3]; first compound 5 µM): 0.263 | relative viability ([4]; first compound 0.05 µM): 0.194 | relative viability ([4]; first compound 0.1581 µM): 0.204 | relative viability ([4]; first compound 0.5 µM): 0.157 | relative viability ([4]; first compound 1.581 µM): 0.152 | relative viability ([4]; first compound 5 µM): 0.173

LOU-NH91
relative viability ([1]; first compound 0.05 µM): 0.6 | relative viability ([1]; first compound 0.1581 µM): 0.599 | relative viability ([1]; first compound 0.5 µM): 0.459 | relative viability ([1]; first compound 1.581 µM): 0.31 | relative viability ([1]; first compound 5 µM): 0.387 | relative viability ([2]; first compound 0.05 µM): 0.653 | relative viability ([2]; first compound 0.1581 µM): 0.641 | relative viability ([2]; first compound 0.5 µM): 0.399 | relative viability ([2]; first compound 1.581 µM): 0.29 | relative viability ([2]; first compound 5 µM): 0.31 | relative viability ([3]; first compound 0.05 µM): 0.705 | relative viability ([3]; first compound 0.1581 µM): 0.843 | relative viability ([3]; first compound 0.5 µM): 0.626 | relative viability ([3]; first compound 1.581 µM): 0.447 | relative viability ([3]; first compound 5 µM): 0.488 | relative viability ([4]; first compound 0.05 µM): 0.358 | relative viability ([4]; first compound 0.1581 µM): 0.385 | relative viability ([4]; first compound 0.5 µM): 0.308 | relative viability ([4]; first compound 1.581 µM): 0.278 | relative viability ([4]; first compound 5 µM): 0.301

LU99A
relative viability ([1]; first compound 0.05 µM): 0.493 | relative viability ([1]; first compound 0.1581 µM): 0.548 | relative viability ([1]; first compound 0.5 µM): 0.256 | relative viability ([1]; first compound 1.581 µM): 0.182 | relative viability ([1]; first compound 5 µM): 0.135 | relative viability ([2]; first compound 0.05 µM): 0.224 | relative viability ([2]; first compound 0.1581 µM): 0.246 | relative viability ([2]; first compound 0.5 µM): 0.247 | relative viability ([2]; first compound 1.581 µM): 0.241 | relative viability ([2]; first compound 5 µM): 0.246 | relative viability ([3]; first compound 0.05 µM): 0.488 | relative viability ([3]; first compound 0.1581 µM): 0.495 | relative viability ([3]; first compound 0.5 µM): 0.36 | relative viability ([3]; first compound 1.581 µM): 0.189 | relative viability ([3]; first compound 5 µM): 0.167 | relative viability ([4]; first compound 0.05 µM): 0.225 | relative viability ([4]; first compound 0.1581 µM): 0.304 | relative viability ([4]; first compound 0.5 µM): 0.207 | relative viability ([4]; first compound 1.581 µM): 0.172 | relative viability ([4]; first compound 5 µM): 0.203
